Entries after “also recorded” stand apart in the source; their conditions may differ.
Columns and labels:
3T3-L1 adipocytes [1] = test: 6-NBDG uptake screening in 3T3-L1 adipocytes, 96-well, fluorescent microplate reader; format: cell-based, murine; conditions: for NBDG uptake in adipocytes on re-testing of purified compounds: 250 nM-20 μM, compared with insulin and zinc sulfate; for effect of GLUT inhibitors (4,6-EDG, cytochalasin B) on compound-induced NBDG uptake: with 4,6-EDG (50 mM) or cytochalasin B; for effect on insulin-stimulated 6-NBDG uptake: 3 h pre-treatment with inhibitors
Procedure: 3T3-L1 murine fibroblasts were maintained in proliferation media, consisting of DMEM supplemented with 10% FBS, 50 units/mL penicillin and 50 μg/mL streptomycin. 3T3-L1 fibroblasts were induced to differentiate into adipocytes as follows: 48 h postconfluent cells (designated day 0) were cultured in DMEM supplemented 10% FBS, 0.5 mM 3-isobutyl-1-methyl-xanthine, 2 μg/ml dexamethasone, 1 μg/ml insulin, 50 units/mL penicillin and 50 μg/mL streptomycin for 2 days. Every 2 days thereafter, the cells were incubated with fresh DMEM supplemented with 10% FBS and 1 μg/ml insulin. 3T3-L1 adipocytes were used for experiments 8 days after the induction of differentiation.
(§1) Three cell lines were chosen to test if NBDG can be used to detect insulin-stimulated glucose uptake in a 96 well plate culture format, which is more suitable for cell-based screening to identify novel insulin mimetic compounds. The cell lines chosen were Huh7 hepatocytes, C2C12 myoblasts and 3T3-L1 pre-adipocytes, which represent the major body tissue types that are sensitive to the action of insulin (liver, muscle and fat). 10^4 cells/well were seeded in a black, 96 well tissue culture plate (BD Falcon, NJ, USA). C2C12 myoblasts and 3T3-L1 adipocytes were induced to undergo differentiation into myotubes and adipocytes, respectively, to compare the NDBG signal in proliferating and differentiated cells. NBDG uptake was measured following treatment with 10 nM or 100 nM insulin, and 1 μM or 10 μM rosiglitazone (an insulin-sensitizing agent), using a fluorescent microplate reader (SpectraMAX GeminiXS and SoftMax Pro V5 software, Molecular Devices, CA, USA). Cells were cultured in serum-free low glucose culture media for 3 h before the addition of insulin.
To test the NBDG-based screening system, a combinatorial chemical library of 576 triazine-based small molecules was screened at a concentration of 5 μM. The combinatorial library was provided by Professor Young-Tae Chang, Department of Chemistry, National University of Singapore.
To test if this screening protocol could detect new insulin mimetic compounds, a combinatorial chemical library of 576 triazine-based small molecules was screened.

3T3-L1 adipocytes [2] = test: Detection of apoptosis (Apo-TRACE staining, microplate quantification); format: cell-based, murine; conditions: 5 μM, 24 hrs
Procedure: 3T3-L1 pre-adipocytes were cultured to confluence in 24-well plates and induced to differentiate into adipocytes. The induction of apoptosis was detected using the Apo-TRACE™ Apoptotic Cell Staining Kit (Sigma-Aldrich, SL, USA), which employs a fluorescent compound that responds to alterations in plasma membrane potential and phospholipid scrambling, which are hallmarks of apoptotic cells. Apoptotic cells were visualized by microscopy under UV illumination (Olympus IX81, Japan) equipped with MetaMorph 7.5 image capture software (Molecular Devices, CA, USA)). Images were processed with Photoshop CS4 software (Adobe Systems Incorporated, CA, USA). Apoptosis was quantified by fluorescent microplate reader analysis of cell lysate.

3T3-L1 adipocytes [3] = test: Necrosis / cell death by trypan blue exclusion; format: cell-based; conditions: 24 h after treatment
Procedure: Necrosis was detected by the ability of cells to exclude the dye, trypan blue. 3T3-L1 adipocytes were cultured to confluence in 6-well plates and treated with drug. Adipocytes were then harvested by trpsinization and resuspended in 1 mL PBS. A 50 μL aliquot was taken and stained with an equal volume of 0.4% trypan blue solution (Sigma, SL, USA). Cells that could not exclude dye were classified as necrotic and quantified using a hemocytometer.

3T3-L1 adipocytes [4] = test: 2-NBDG uptake in insulin-responsive cell lines, 96-well; format: cell-based, murine; conditions: 10 nM or 100 nM insulin, 30 min; compared to Huh7, C2C12 myoblasts/myotubes, 3T3-L1 pre-adipocytes
Procedure: as §1

3T3-L1 adipocytes [5] = test: Commercial enzyme-based glucose content assay (Biovision); format: cell-based, murine; conditions: tested in triplicate
Procedure: For comparison and validation of our new screening based on NBDG uptake, we used a commercial, enzyme-based glucose assay provided by Biovision Inc., CA, USA. 3T3-L1 adipocytes were seeded at 5×10^4 cells/well in a 96-well culture plate. 24 h later, culture media was changed and adipocytes were cultured in serum-free low glucose DMEM for 3 h prior to drug treatment. Cells were lysed with 100 μL Cell Lytic M (Sigma-Aldrich, SL, USA) and 50 μL lysate was used for assay.

[6] = system: human aortic endothelial cells (HAEC); conditions: cited from earlier work
VCAM-1 [7] = conditions: cited from earlier work
3T3-L1 adipocytes [8] = test: Epinephrine-stimulated free fatty acid release assay; format: cell-based, murine; conditions: for inhibition of epinephrine-stimulated free fatty acid release: 5 μM compound, 10 μM epinephrine
Procedure: Epinephrine-stimulated free fatty acid (FFA) release from adipocytes was measured using the Free Fatty Acid Quantification Kit (Biovision, CA, USA), following the method previously described^13. Confluent 3T3-L1 adipocytes in a 24 well plate were cultured for 3 h in serum-free culture media. Adipocytes were then treated with 10 μM epinephrine dissolved in saline to induce FFA […] release. Drug of interest was added 10 min before the addition of epinephrine. Cell lysate was collected and 50 μL of the organic phase was used for assay. Palmitic acid was used to generate the standard curve.

[9] = system: human aortic endothelial cells (HAEC); test: Monocyte-endothelial cell adhesion assay (THP-1 monocytes, hyperglycemia); format: cell-based; conditions: 30 mM glucose; 5 μM compound for 3 hrs before THP-1 monocytes
Procedure: (§2) HAEC were exposed to hyperglycemia (30 mM glucose) for days and treated with 5 μM compounds AP-III-a4 or AP-I-h7 or 100 nM insulin for 3 hrs prior to addition of THP-1 monocytes. […] Data is representative of three independent experiments. 5 mM glucose=normoglycemia; 30 mM glucose=hyperglycemia (5 days treatment); AP-III-a4=hyperglycemia (5 days treatment) and 24 hrs treatment with 5 μM AP-III-a4; AP-I-h7=hyperglycemia (5 days treatment) and 24 hrs treatment with […]; MLB=hyperglycemia (5 days treatment) and 48 hrs treatment with 50 μM magnesium lithospermate B.
Human aortic endothelial cells were supplied by Cambrex (NJ, USA) and cultured in EBM-2 growth media supplemented with the EGM-2 bullet kit. […]
The adhesion of mouse inflammatory peritoneal (IP) exudate macrophages to endothelial cell monlayers was carried out as previously described.^14 Briefly, endothelial cells were cultured to confluence in 6-well culture plates and treated with drug with or without high glucose (30 mM for 48 h) culture media. […] The unbound cells were washed three times with serum-free RPMI-1640 medium, and the total number of adherent cells was counted in four randomly selected optical fields per well (100× magnification; Olympus microscope CKX41, Japan; microscopic images were captured with a DigiEye 330 digital camera (Dewinter, India) and Biowizard 4.3 software (Dewinter, India)). […]

VCAM-1 [10] = test: VCAM-1 expression in HAEC exposed to hyperglycemia (Western blot); format: cell-based, human; conditions: 30 mM glucose 5 days; 24 hrs treatment with 5 μM
Procedure: as §2
Human aortic endothelial cells were supplied by Cambrex (NJ, USA) and cultured in EBM-2 growth media supplemented with the EGM-2 bullet kit. THP-1 human monocytic cells were cultured in RPMI-1640 medium supplemented with […] 2-mercaptoethanol, 10% fetal bovine serum and antibiotics. Cells were cultured in growth media containing 5 mM glucose for the normoglycemia condition or 30 mM glucose for the hyperglycemia condition.
Proteins were separated by 10% SDS-PAGE and transferred onto […] nitrocellulose (Bio-Rad, CA, USA). Densitometry was carried out using TINA 2.10e software (Catholic University Medical College (GmBH), Germany).

[11] = system: insulin resistant 3T3-L1 adipocytes; test: NBDG uptake in adipocytes rendered insulin resistant with TNF-α; format: cell-based, murine
From the text: (§3) Error=SD. *=P<0.05 compared to 3T3-L1 adipocytes in the same treatment group. […] Data is representative of three independent experiments.

[12] = system: 3T3-L1 adipocytes and pre-adipocytes; test: Fluorescent microscope analysis of NBDG uptake in mixed cultures of adipocytes and pre-adipocytes; format: cell-based, murine; conditions: 10 μM compound; adipocytes vs pre-adipocytes (fibroblast-like)
From the text: as §3

Molecule: NCCOCCOCCNC(=O)Cc1ccc(Nc2nc(NCC3CCCCC3)nc(N3CCCCC3)n2)cc1 [AP-IV-e4]
- NBDG uptake in adipocytes on re-testing of purified compounds (3T3-L1 adipocytes [1]): can increase NBDG uptake; also recorded: promote NBDG uptake in adipocytes
- effect of GLUT inhibitors (4,6-EDG, cytochalasin B) on compound-induced NBDG uptake (3T3-L1 adipocytes [1]): sensitive to exo- and endofacial inhibitors of GLUT
- induction of apoptosis (3T3-L1 adipocytes [2]): induced apoptosis
- induction of cell death (trypan blue exclusion) (3T3-L1 adipocytes [3]): induced cell death

Molecule: O=S(=O)([O-])[O-].[Zn+2] [zinc sulfate, reference compound]
- effect of GLUT inhibitors (4,6-EDG, cytochalasin B) on compound-induced NBDG uptake (3T3-L1 adipocytes [1]): reduced NBDG uptake

Molecule: insulin: Insulin from bovine pancreas
- sensitivity of 6-NBDG uptake in adipocytes to the agent (3T3-L1 adipocytes [1]; 1 μM rosiglitazone, 100 nM insulin): sensitive
- 2-NBDG uptake after insulin treatment (3T3-L1 adipocytes [4]): largest increase in 2-NBDG uptake
- cellular glucose content (3T3-L1 adipocytes [5]): induced an increase in cellular glucose content
- effect on monocyte-endothelial adhesion (literature) [6]: no inhibitory effect on monocyte-endothelial adhesion
- effect on adhesion molecule expression in endothelial cells (literature) (VCAM-1 [7]): not to inhibit adhesion molecule expression

Molecule: CCCCNc1nc(Nc2ccc(CC(=O)NCCOCCOCCN)cc2)nc(N2CCCCC2)n1 [AP-IV-e3]
- NBDG uptake in adipocytes on re-testing of purified compounds (3T3-L1 adipocytes [1]): can increase NBDG uptake; also recorded: promote NBDG uptake in adipocytes
- effect of GLUT inhibitors (4,6-EDG, cytochalasin B) on compound-induced NBDG uptake (3T3-L1 adipocytes [1]): sensitive to exo- and endofacial inhibitors of GLUT
- induction of apoptosis (3T3-L1 adipocytes [2]): induced apoptosis
- induction of cell death (trypan blue exclusion) (3T3-L1 adipocytes [3]): induced cell death

Molecule: NCCOCCOCCNC(=O)Cc1ccc(Nc2nc(NCc3ccc(F)cc3)nc(NCC3CCCCC3)n2)cc1 [AP-III-a4]
- NBDG uptake in adipocytes on re-testing of purified compounds (3T3-L1 adipocytes [1]): can increase NBDG uptake; also recorded: promote NBDG uptake in adipocytes
- effect of GLUT inhibitors (4,6-EDG, cytochalasin B) on compound-induced NBDG uptake (3T3-L1 adipocytes [1]): sensitive to exo- and endofacial inhibitors of GLUT
- induction of apoptosis (3T3-L1 adipocytes [2]): did not induce apoptosis
- concentration required to produce insulin mimetic activity in adipocytes (3T3-L1 adipocytes [8]): 5 µM
- inhibition of epinephrine-stimulated free fatty acid release (3T3-L1 adipocytes [8]): could inhibit epinephrine-stimulated free fatty acid release; also recorded: inhibit 10 μM epinephrine-mediated FFA release
- cellular glucose content (3T3-L1 adipocytes [5]): induced an increase in cellular glucose content
- monocyte adhesion in hyperglycemic conditions [9]: decreased monocyte adhesion; also recorded: reduced monocyte adhesion
- VCAM-1 expression / upregulation in hyperglycemic conditions (VCAM-1 [10]): decreased VCAM-1 upregulation; also recorded: reduced the expression of VCAM-1
- sensitivity of compound-induced NBDG uptake to insulin resistance [11]: sensitive to the induction of insulin resistance
- cell-type preference of NBDG uptake [12]: preferentially taken up in the adipocytes; also recorded: preferentially occurs in adipocytes rather than fibroblasts

Molecule: C=C1[C@@H](C)[C@H]2[C@H](Cc3ccccc3)NC(=O)[C@]23OC(=O)/C=C/[C@H](O)CCC[C@@H](C)C/C=C/[C@H]3[C@@H]1O [cytochalasin B, reference compound]
- effect on insulin-stimulated 6-NBDG uptake (3T3-L1 adipocytes [1]; 100 nM insulin): reduced insulin-stimulated uptake of 6-NBDG; also recorded: inhibited

Molecule: CC1OC[C@H]2O[C@H](O)[C@H](O)[C@@H](O)[C@@H]2O1 (stereo partly drawn) [4,6-EDG, 4,6-ethylidine-D-glucose, reference compound]
- effect on insulin-stimulated 6-NBDG uptake (3T3-L1 adipocytes [1]; 100 nM insulin): reduced insulin-stimulated uptake of 6-NBDG; also recorded: inhibited

Molecule: CCCCNc1nc(NCCc2ccccc2)nc(Nc2ccc(CC(=O)NCCOCCOCCN)cc2)n1 [AP-I-h7]
- NBDG uptake in adipocytes on re-testing of purified compounds (3T3-L1 adipocytes [1]): can increase NBDG uptake; also recorded: promote NBDG uptake in adipocytes
- effect of GLUT inhibitors (4,6-EDG, cytochalasin B) on compound-induced NBDG uptake (3T3-L1 adipocytes [1]): sensitive to exo- and endofacial inhibitors of GLUT
- induction of apoptosis (3T3-L1 adipocytes [2]): did not induce apoptosis
- concentration required to produce insulin mimetic activity in adipocytes (3T3-L1 adipocytes [8]): 5 µM
- inhibition of epinephrine-stimulated free fatty acid release (3T3-L1 adipocytes [8]): could inhibit epinephrine-stimulated free fatty acid release; also recorded: inhibit 10 μM epinephrine-mediated FFA release
- cellular glucose content (3T3-L1 adipocytes [5]): induced an increase in cellular glucose content
- monocyte adhesion in hyperglycemic conditions [9]: decreased monocyte adhesion; also recorded: reduced monocyte adhesion
- VCAM-1 expression / upregulation in hyperglycemic conditions (VCAM-1 [10]): decreased VCAM-1 upregulation; also recorded: reduced the expression of VCAM-1
- sensitivity of compound-induced NBDG uptake to insulin resistance [11]: sensitive to the induction of insulin resistance
- cell-type preference of NBDG uptake [12]: preferentially taken up in the adipocytes; also recorded: preferentially occurs in adipocytes rather than fibroblasts

From US9254290B2, “Method for screening diabetes treating agent” (GWANGJU INSTITUTE OF SCIENCE AND TECHNOLOGY, priority 2010, dated 2016)
